Like-named read-outs stand apart in the source and are kept apart here.
Experiments:
S. typhimurium DT 104 = format: cell-based, Salmonella typhimurium DT104; conditions: water, 21° C.
various yeast species = experiment: Effect of levulinic acids plus SDS at 21° C. on various yeast species; format: cell-based; conditions: for Yeast counts at min: 1: 1 min; for Yeast counts at min: 2: 2 min; for Yeast counts at min: 5: 5 min; for Yeast counts at min: 10: 10 min; for Yeast counts at min: 20: 20 min; for Yeast counts at min: 30: 30 min; for Yeast counts at min: 60: 60 min
L. monocytogenes = format: cell-based, Listeria monocytogenes; conditions: 21° C.
[1] = tested on: spores of Bacillus anthracis Sterne; format: cell-based, Bacillus anthracis Sterne (34F2)
S. enteritidis = experiment: Reduction of S. enteritidis in water treated with organic acids and SDS; format: cell-based, Salmonella enteritidis; conditions: water; for S. enteritidis counts: 21° C.; for Salmonella reduction: contact for 30 minutes
[2] = 0 min, listed as 0.5% levulinic acid
[3] = 0 min, listed as 1.0% levulinic acid
[4] = 0 min, listed as 2.0% levulinic acid
[5] = 2 min, listed as 0.5% levulinic acid
[6] = 2 min, listed as 1.0% levulinic acid
[7] = 2 min, listed as 2.0% levulinic acid
[8] = 5 min, listed as 0.5% levulinic acid
[9] = 5 min, listed as 1.0% levulinic acid
[10] = 5 min, listed as 2.0% levulinic acid
[11] = 10 min, listed as 0.5% levulinic acid
[12] = 10 min, listed as 1.0% levulinic acid
[13] = 10 min, listed as 2.0% levulinic acid
[14] = 20 min, listed as 0.5% levulinic acid
[15] = 20 min, listed as 1.0% levulinic acid
[16] = 20 min, listed as 2.0% levulinic acid
[17] = 30 min, listed as 0.5% levulinic acid
[18] = 30 min, listed as 1.0% levulinic acid
[19] = 30 min, listed as 2.0% levulinic acid

In the case of `CC(=O)CCC(=O)O` [levulinic acid], the “S. typhimurium DT 104 counts” value (S. typhimurium DT 104; 0 min) was 6.8 log CFU/ml, the “S. typhimurium DT 104 counts” value (S. typhimurium DT 104; 1 min) was 6.7 log CFU/ml and the “S. typhimurium DT 104 counts” value (S. typhimurium DT 104; 2 min) was 6.6 log CFU/ml. The “S. typhimurium DT 104 counts” value (S. typhimurium DT 104; 5 min) was 6.5 log CFU/ml, the “S. typhimurium DT 104 counts” value (S. typhimurium DT 104; 10 min) was 6.7 log CFU/ml and the “S. typhimurium DT 104 counts” value (S. typhimurium DT 104; 20 min) was 6.6 log CFU/ml. For the same compound, the “S. typhimurium DT 104 counts” value (S. typhimurium DT 104; 30 min) was 6.4 log CFU/ml, the “S. typhimurium DT 104 counts” value (S. typhimurium DT 104; 60 min) was 5.9 log CFU/ml and the “Yeast counts at min: 1” value (various yeast species; Debaryomyces hansenii) was 4.8 log CFU/ml. The “Yeast counts at min: 2” value (various yeast species; Debaryomyces hansenii) was 4.9 log CFU/ml, the “Yeast counts at min: 5” value (various yeast species; Debaryomyces hansenii) was 4.6 log CFU/ml and the “Yeast counts at min: 10” value (various yeast species; Debaryomyces hansenii) was 4.4 log CFU/ml. The “Yeast counts at min: 20” value (various yeast species; Debaryomyces hansenii) was 4.7 log CFU/ml, the “Yeast counts at min: 30” value (various yeast species; Debaryomyces hansenii) was 3.0 log CFU/ml and the “Yeast counts at min: 60” value (various yeast species; Debaryomyces hansenii) was 1.3 log CFU/ml. The “Yeast counts at min: 1” value (various yeast species; Geotrichum candidum) was 4.4 log CFU/ml, the “Yeast counts at min: 2” value (various yeast species; Geotrichum candidum) was 4.4 log CFU/ml and the “Yeast counts at min: 5” value (various yeast species; Geotrichum candidum) was 4.3 log CFU/ml. For the same compound, the “Yeast counts at min: 10” value (various yeast species; Geotrichum candidum) was 4.1 log CFU/ml, the “Yeast counts at min: 20” value (various yeast species; Geotrichum candidum) was 3.8 log CFU/ml and the “Yeast counts at min: 30” value (various yeast species; Geotrichum candidum) was 3.4 log CFU/ml. For the same compound, the “Yeast counts at min: 60” value (various yeast species; Geotrichum candidum) was 2.0 log CFU/ml, the “Yeast counts at min: 1” value (various yeast species; Saccharomyces cerevisiae) was 5.3 log CFU/ml and the “Yeast counts at min: 2” value (various yeast species; Saccharomyces cerevisiae) was 5.5 log CFU/ml. The “Yeast counts at min: 5” value (various yeast species; Saccharomyces cerevisiae) was 5.4 log CFU/ml, the “Yeast counts at min: 10” value (various yeast species; Saccharomyces cerevisiae) was 5.3 log CFU/ml and the “Yeast counts at min: 20” value (various yeast species; Saccharomyces cerevisiae) was 5.3 log CFU/ml. The “Yeast counts at min: 30” value (various yeast species; Saccharomyces cerevisiae) was 5.5 log CFU/ml, the “Yeast counts at min: 60” value (various yeast species; Saccharomyces cerevisiae) was 5.0 log CFU/ml and the L. monocytogenes counts (L. monocytogenes; 0 min) was 6.9 ± 0.1 log CFU/ml. The L. monocytogenes counts (L. monocytogenes; [2]) was 6.7 ± 0.2 log CFU/ml, the L. monocytogenes counts (L. monocytogenes; [3]) was 6.8 ± 0.3 log CFU/ml and the L. monocytogenes counts (L. monocytogenes; [4]) was 6.8 ± 0.3 log CFU/ml. It also gave a L. monocytogenes counts (L. monocytogenes; 2 min) of 6.9 ± 0.2 log CFU/ml, a L. monocytogenes counts (L. monocytogenes; [5]) of 6.7 ± 0.1 log CFU/ml and a L. monocytogenes counts (L. monocytogenes; [6]) of 6.7 ± 0.2 log CFU/ml. The L. monocytogenes counts (L. monocytogenes; [7]) was 6.8 ± 0.2 log CFU/ml, the L. monocytogenes counts (L. monocytogenes; 5 min) was 6.9 ± 0.3 log CFU/ml and the L. monocytogenes counts (L. monocytogenes; [8]) was 6.8 ± 0.3 log CFU/ml. For the same compound, the L. monocytogenes counts (L. monocytogenes; [9]) was 6.6 ± 0.3 log CFU/ml, the L. monocytogenes counts (L. monocytogenes; [10]) was 6.9 ± 0.2 log CFU/ml and the L. monocytogenes counts (L. monocytogenes; 10 min) was 6.9 ± 0.1 log CFU/ml. For the same compound, the L. monocytogenes counts (L. monocytogenes; [11]) was 6.9 ± 0.2 log CFU/ml, the L. monocytogenes counts (L. monocytogenes; [12]) was 6.6 ± 0.3 log CFU/ml and the L. monocytogenes counts (L. monocytogenes; [13]) was 6.7 ± 0.2 log CFU/ml. It also gave a L. monocytogenes counts (L. monocytogenes; 20 min) of 6.9 ± 0.3 log CFU/ml, a L. monocytogenes counts (L. monocytogenes; [14]) of 6.7 ± 0.2 log CFU/ml and a L. monocytogenes counts (L. monocytogenes; [15]) of 6.6 ± 0.0 log CFU/ml. For the same compound, the L. monocytogenes counts (L. monocytogenes; [16]) was 6.9 ± 0.2 log CFU/ml, the L. monocytogenes counts (L. monocytogenes; 30 min) was 6.8 ± 0.3 log CFU/ml and the L. monocytogenes counts (L. monocytogenes; [17]) was 6.8 ± 0.2 log CFU/ml. The L. monocytogenes counts (L. monocytogenes; [18]) was 6.6 ± 0.3 log CFU/ml, the L. monocytogenes counts (L. monocytogenes; [19]) was 6.8 ± 0.2 log CFU/ml and the “CFU % recovery (as compared to control flask F)” value (shortened to “CFU % recovery”) ([1]; Experiment A3, 10 min) was 81%. The “CFU % recovery” value ([1]; Experiment A3, 45 min) was 55%, the “CFU % recovery” value ([1]; Experiment A3, 90 min) was 64% and the “CFU % recovery” value ([1]; Experiment A4 absent heat, RT, 0 min) was 89%. The “CFU % recovery” value ([1]; Experiment A4 absent heat, RT, 1 h) was 54%, the “CFU % recovery” value ([1]; Experiment A4 absent heat, RT, 2 h) was 27% and the “CFU % recovery” value ([1]; Experiment A4 absent heat, RT, 3 h) was 30%. The “CFU % recovery” value ([1]; Experiment A4 absent heat, RT, 4 h) was 15%, the “CFU % recovery” value ([1]; Experiment A4 with heat, 65° C., 0 min) was 70% and the “CFU % recovery” value ([1]; Experiment A4 with heat, 65° C., 1 h) was 78%. The “CFU % recovery” value ([1]; Experiment A4 with heat, 65° C., 2 h) was 45%, the “CFU % recovery” value ([1]; Experiment A4 with heat, 65° C., 3 h) was 33% and the “CFU % recovery” value ([1]; Experiment A4 with heat, 65° C., 4 h) was 46%. The “CFU % recovery” value ([1]; Experiment A5 absent heat, RT, 1 h) was 80%, the “CFU % recovery” value ([1]; Experiment A5 absent heat, RT, 2 h) was 46% and the “CFU % recovery” value ([1]; Experiment A5 absent heat, RT, 3 h) was 67%. The “CFU % recovery” value ([1]; Experiment A5 absent heat, RT, 4 h) was 37%, the “CFU % recovery” value ([1]; Experiment A5 with heat, 65° C., 0 min) was 75% and the “CFU % recovery” value ([1]; Experiment A5 with heat, 65° C., 1 h) was 58%. For the same compound, the “CFU % recovery” value ([1]; Experiment A5 with heat, 65° C., 2 h) was 34%, the “CFU % recovery” value ([1]; Experiment A5 with heat, 65° C., 3 h) was 34% and the “CFU % recovery” value ([1]; Experiment A5 with heat, 65° C., 4 h) was 14%. It also gave a S. enteritidis counts (S. enteritidis; 0 min, listed as 0.1% levulinic acid) of 7.1 log CFU/ml, a S. enteritidis counts (S. enteritidis; [2]) of 7.1 log CFU/ml and a S. enteritidis counts (S. enteritidis; [3]) of 6.9 log CFU/ml. The S. enteritidis counts (S. enteritidis; [4]) was 6.7 log CFU/ml, the S. enteritidis counts (S. enteritidis; 0 min, listed as 3.0% levulinic acid) was 6.6 log CFU/ml and the S. enteritidis counts (S. enteritidis; 2 min, listed as 0.1% levulinic acid) was 7.1 log CFU/ml. It also gave a S. enteritidis counts (S. enteritidis; [5]) of 6.8 log CFU/ml, a S. enteritidis counts (S. enteritidis; [6]) of 6.7 log CFU/ml and a S. enteritidis counts (S. enteritidis; [7]) of 6.7 log CFU/ml. For the same compound, the S. enteritidis counts (S. enteritidis; 2 min, listed as 3.0% levulinic acid) was 6.8 log CFU/ml, the S. enteritidis counts (S. enteritidis; 5 min, listed as 0.1% levulinic acid) was 6.9 log CFU/ml and the S. enteritidis counts (S. enteritidis; [8]) was 6.9 log CFU/ml. For the same compound, the S. enteritidis counts (S. enteritidis; [9]) was 6.8 log CFU/ml, the S. enteritidis counts (S. enteritidis; [10]) was 6.7 log CFU/ml and the S. enteritidis counts (S. enteritidis; 5 min, listed as 3.0% levulinic acid) was 6.5 log CFU/ml. It also gave a S. enteritidis counts (S. enteritidis; 10 min, listed as 0.1% levulinic acid) of 7.0 log CFU/ml, a S. enteritidis counts (S. enteritidis; [11]) of 6.9 log CFU/ml and a S. enteritidis counts (S. enteritidis; [12]) of 6.9 log CFU/ml. The S. enteritidis counts (S. enteritidis; [13]) was 6.8 log CFU/ml, the S. enteritidis counts (S. enteritidis; 10 min, listed as 3.0% levulinic acid) was 6.2 log CFU/ml and the S. enteritidis counts (S. enteritidis; 20 min, listed as 0.1% levulinic acid) was 6.9 log CFU/ml. For the same compound, the S. enteritidis counts (S. enteritidis; [14]) was 6.6 log CFU/ml, the S. enteritidis counts (S. enteritidis; [15]) was 6.9 log CFU/ml and the S. enteritidis counts (S. enteritidis; [16]) was 6.5 log CFU/ml. It also gave a S. enteritidis counts (S. enteritidis; 20 min, listed as 3.0% levulinic acid) of 5.1 log CFU/ml, a S. enteritidis counts (S. enteritidis; 30 min, listed as 0.1% levulinic acid) of 6.9 log CFU/ml and a S. enteritidis counts (S. enteritidis; [17]) of 6.7 log CFU/ml. It also gave a S. enteritidis counts (S. enteritidis; [18]) of 6.7 log CFU/ml, a S. enteritidis counts (S. enteritidis; [19]) of 6.0 log CFU/ml and a S. enteritidis counts (S. enteritidis; 30 min, listed as 3.0% levulinic acid) of 3.8 log CFU/ml. The Salmonella reduction (S. enteritidis; listed as 0.1 to 2.0% by weight levulinic acid) was about 1 log CFU/ml, the Salmonella reduction (S. enteritidis; listed as 1% by weight levulinic acid) was at most 1 log CFU/ml and the Salmonella reduction (S. enteritidis; listed as 3% levulinic acid) was 3.4 log CFU/ml. For the same compound, the Salmonella reduction (S. enteritidis; listed as 3.0% levulinic acid) was 3.4 log CFU/ml.
